Assay results from patent publication US20230364118A1, “RIBITOL TREATMENT” (priority 2020, published 2023).
“And” between values parts separate entries of the source, which are not always exact repeats. Equal values may be shown once. Read-outs that look alike come from different tables or passages of the source.

Assays:
[1] = 28-day repeat-dose oral toxicokinetics; type: in vivo, CD-1 mouse; details: for Tmax / Cmax / AUC(0-t): CD-1, mouse, plasma; for AUC(0-t): read-out: AUC0-24
Experimental: Toxicokinetics of ribitol was evaluated as part of the 28-day toxicology study in male and female CD-1 mice. […] Toxicokinetic animals were 12/sex in the control group and 48/sex/group in the treated groups. Blood samples were collected on Day 1 and Day 28 at pre-first dose, 0.5, 2, 4, 8 (prior to second dose), 8.5, 10, and 24 h.

[2] = Metabolic stability in liver microsomes, cytosol, hepatocytes; type: in vitro ADME
Experimental: Metabolic stability of ribitol was conducted in liver microsomes, cytosol, and primary hepatocytes, from CD-1 mouse, Sprague-Dawley rat, Gottingen minipig, and human at a concentration of ribitol of 10 μM.

[3] = 28-day oral GLP toxicity study with 14-day recovery; details: mouse
Experimental: The purpose of this GLP study was to assess the potential toxicity, reversibility, persistence, or delayed effects of ribitol in mice following 28 days of BID oral gavage dosing. In addition, 20 mice/sex/group were treated for 28 days with either vehicle (purified water), 0.5, 1.0, or 1.5 g/kg/dose ribitol BID (1.0, 2.0, or 3.0 g/kg/day) followed by 14-day treatment free recovery period. In-life assessments included mortality, clinical signs including detailed clinical observations pre-test and once weekly during the dosing and recovery phase, body weight, food consumption, ophthalmology, and clinical pathology (hematology and serum chemistry). Terminal endpoints included macroscopic pathology, organ weights and histopathology. Blood was taken from a satellite group of mice for plasma TK (3/sex/timepoint) on Days 1 and 28.

in vivo = details: minipig, po
Experimental: The purpose of this study was to determine the MTD following two oral doses 6±0.5 hours apart (Phase 1) and to characterize the toxicity and TK profile following 7 days BID dosing with ribitol with 6±0.5 hours between doses in minipigs.
Minipigs were assessed for viability, clinical signs, body weight, food consumption, clinical pathology (hematology, coagulation, and serum chemistry), organ weights (adrenal glands, brain, heart, kidneys, liver with gall bladder, ovary, spleen, testes, and thymus), and macroscopic pathology at necropsy. Blood was taken for plasma TK analysis on Days 1 and 7.
In Phase 1, Bama minipigs (2/sex/group) were ribitol at 0.3, 1.0, 1.5, or 2.0 g/kg/dose BID (0.6, 2.0, 3.0, or 4.0 g/kg/day) with 5.5 to 6.5 hours between doses. […] Minipigs were assessed for viability, clinical signs, body weight, food consumption, and macroscopic findings at necropsy.
Doses were selected for Phase 2 based on the Phase 1 study results and in compliance with the guidance criteria for high dose selection for general toxicity studies (ICH M3 [R2]). In this phase, minipigs (2/sex/group) were given oral doses of 0 (vehicle control, water), 0.1, 0.3, or 1.0 g/kg/dose ribitol BID with 5.5 to 6.5 hours between doses (0.2, 0.6, or 2.0 g/kg/day, respectively).

[4] = 28-day oral GLP toxicity study with 14-day recovery; details: minipig
Experimental: The purpose of this GLP study was to assess the potential toxicity, reversibility, persistence, or delayed effects of ribitol in minipigs following 28 days of BID oral gavage dosing with a 14 day recovery period. In addition, the plasma TK profile of ribitol was evaluated on Days 1 and 28. Four Bama minipigs/sex/group were administered 0 (vehicle control, purified water), 0.1, 0.3, or 1.0 g/kg/dose ribitol by oral gavage BID (0.2, 0.6, 2.0 g/kg/day; 6 hours apart) for 28 days. In addition, 2 minipigs/sex/group were treated for 28 days with either vehicle (water) or 1.0 g/kg/dose ribitol BID (2.0 g/kg/day) followed by 14-day treatment-free recovery period. In-life assessments included mortality, clinical signs including detailed clinical observations pre-test and once weekly during the dosing and recovery phase, body weight, food consumption, ophthalmology, electrocardiography, and clinical pathology (hematology, coagulation, serum chemistry, and urinalysis). Terminal endpoints included macroscopic pathology, organ weights and histopathology. Blood was taken for plasma TK on Days 1 and 28.

[5] = Chronic (6 months) administration in mice; type: in vivo, mouse
Experimental: This response subsided at 48 hours after termination of treatment. No other adverse findings have been identified thus far with ribitol.

[6] = both sexes, po, 0.5 g/kg, 0.5 g/kg/dose BID, Day 1, Mean of sexes
[7] = both sexes, po, 0.5 g/kg, 0.5 g/kg/dose BID, Day 28, Mean of sexes
[8] = both sexes, po, 1 g/kg, 1.0 g/kg/dose BID, Day 1, Mean of sexes
[9] = both sexes, po, 1 g/kg, 1.0 g/kg/dose BID, Day 28, Mean of sexes
[10] = both sexes, po, 1.5 g/kg, 1.5 g/kg/dose BID, Day 1, Mean of sexes
[11] = both sexes, po, 1.5 g/kg, 1.5 g/kg/dose BID, Day 28, Mean of sexes
[12] = female, po, 0.5 g/kg, 0.5 g/kg/dose BID, Day 1, Female
[13] = female, po, 0.5 g/kg, 0.5 g/kg/dose BID, Day 28, Female
[14] = female, po, 1 g/kg, 1.0 g/kg/dose BID, Day 1, Female
[15] = female, po, 1 g/kg, 1.0 g/kg/dose BID, Day 28, Female
[16] = female, po, 1.5 g/kg, 1.5 g/kg/dose BID (3.0 g/kg/day, NOAEL), Day 28, Female
[17] = female, po, 1.5 g/kg, 1.5 g/kg/dose BID, Day 1, Female
[18] = male, po, 0.5 g/kg, 0.5 g/kg/dose BID, Day 1, Male
[19] = male, po, 0.5 g/kg, 0.5 g/kg/dose BID, Day 28, Male
[20] = male, po, 1 g/kg, 1.0 g/kg/dose BID, Day 1, Male
[21] = male, po, 1 g/kg, 1.0 g/kg/dose BID, Day 28, Male
[22] = male, po, 1.5 g/kg, 1.5 g/kg/dose BID (3.0 g/kg/day, NOAEL), Day 28, Male
[23] = male, po, 1.5 g/kg, 1.5 g/kg/dose BID, Day 1, Male
[24] = CD-1, mouse, liver cytosol, Cytosol
[25] = CD-1, mouse, liver microsomes, Microsomes
[26] = CD-1, mouse, primary hepatocytes, Hepatocytes
[27] = Gottingen, minipig, liver cytosol, Cytosol
[28] = Gottingen, minipig, liver microsomes, Microsomes
[29] = Gottingen, minipig, primary hepatocytes, Hepatocytes
[30] = Sprague-Dawley, rat, liver cytosol, Cytosol
[31] = Sprague-Dawley, rat, liver microsomes, Microsomes
[32] = Sprague-Dawley, rat, primary hepatocytes, Hepatocytes
[33] = human, liver microsomes, Microsomes
[34] = human, primary hepatocytes, Hepatocytes

## OC[C@@H](O)[C@@H](O)[C@@H](O)CO [ribitol, (2R,3s,4S)-Pentane-1,2,3,4,5-pentol]
[1]; after 28 days repeated oral administration, any dose level
  drug accumulation: no apparent ribitol drug accumulation
[1]; both sexes, oral, post first dose and post second dose, Day 1 or Day 28
  Tmax: 0.5 h
[1]; [6]
  Cmax: 141 µg/mL
  AUC(0-t): 337 µg·h/mL
[1]; [7]
  Cmax: 140 µg/mL
  AUC(0-t): 422 µg·h/mL
[1]; [8]
  Cmax: 257 µg/mL
  AUC(0-t): 540 µg·h/mL
[1]; [9]
  Cmax: 245 µg/mL
  AUC(0-t): 806 µg·h/mL
[1]; [10]
  Cmax: 384 µg/mL
  AUC(0-t): 1020 µg·h/mL
[1]; [11]
  Cmax: 336 µg/mL
  AUC(0-t): 1090 µg·h/mL
[1]; [12]
  Cmax: 157 µg/mL
  Tmax: 8.5 h
  AUC(0-t): 322 µg·h/mL
[1]; [13]
  Cmax: 141 µg/mL
  Tmax: 8.5 h
  AUC(0-t): 393 µg·h/mL
[1]; [14]
  Cmax: 227 µg/mL
  Tmax: 8.5 h
  AUC(0-t): 520 µg·h/mL
[1]; [15]
  Cmax: 252 µg/mL
  Tmax: 0.5 h
  AUC(0-t): 794 µg·h/mL
[1]; [16]
  Cmax: 294 µg/mL
  AUC(0-t): 839 µg·h/mL
[1]; [17]
  Cmax: 334 µg/mL
  Tmax: 8.5 h
  AUC(0-t): 1070 µg·h/mL
[1]; female, po, 1.5 g/kg, 1.5 g/kg/dose BID, Day 28, Female
  Tmax: 8.5 h
[1]; [18]
  Cmax: 124 µg/mL
  Tmax: 0.5 h
  AUC(0-t): 351 µg·h/mL
[1]; [19]
  Cmax: 138 µg/mL
  Tmax: 0.5 h
  AUC(0-t): 450 µg·h/mL
[1]; [20]
  Cmax: 286 µg/mL
  Tmax: 8.5 h
  AUC(0-t): 559 µg·h/mL
[1]; [21]
  Cmax: 238 µg/mL
  Tmax: 8.5 h
  AUC(0-t): 818 µg·h/mL
[1]; [22]
  Cmax: 377 µg/mL
  AUC(0-t): 1340 µg·h/mL
[1]; [23]
  Cmax: 433 µg/mL
  Tmax: 8.5 h
  AUC(0-t): 972 µg·h/mL
[1]; male, po, 1.5 g/kg, 1.5 g/kg/dose BID, Day 28, Male
  Tmax: 8.5 h
[2]; [24]
  CLint scaled at 10 μM: 4.75 mL/min/kg
  half-life at 10 μM: 9.63 h
[2]; [25]
  CLint scaled at 10 μM: < 29.3 mL/min/kg
  half-life at 10 μM: > 3.12 h
[2]; [26]
  CLint scaled at 10 μM: < 22.6 mL/min/kg
  half-life at 10 μM: > 6.07 h
[2]; [27]
  CLint scaled at 10 μM: 2.71 mL/min/kg
  half-life at 10 μM: 3.27 h
[2]; [28]
  CLint scaled at 10 μM: < 5.56 mL/min/kg
  half-life at 10 μM: > 3.12 h
[2]; [29]
  CLint scaled at 10 μM: < 9.16 mL/min/kg
  half-life at 10 μM: > 6.07 h
[2]; [30]
  CLint scaled at 10 μM: 4.83 mL/min/kg
  half-life at 10 μM: 4.3 h
[2]; [31]
  CLint scaled at 10 μM: < 13.3 mL/min/kg
  half-life at 10 μM: > 3.12 h
[2]; [32]
  CLint scaled at 10 μM: < 8.89 mL/min/kg
  half-life at 10 μM: > 6.07 h
[2]; human, liver cytosol, Cytosol
  CLint scaled at 10 μM: 1.64 mL/min/kg
  half-life at 10 μM: 6.35 h
[2]; [33]
  CLint scaled at 10 μM: < 6.66 mL/min/kg
  half-life at 10 μM: > 3.12 h
[2]; [34]
  CLint scaled at 10 μM: < 5.28 mL/min/kg
  half-life at 10 μM: > 6.07 h
[3]; 28 days oral
  NOAEL: 1.5 g/kg/dose BID
[3]; in vivo
  time to resolution of soft or abnormal stools: 2 to 8 days
In vivo; both, Bama
  MTD at 14 days: ≥ 4000 mg/kg/day
In vivo
  MTD: ≥ 2.0 g/kg/dose BID
[4]; both, Bama, in vivo, po
  NOAEL at 28 days: 2000 mg/kg/day
[4]; 28 days oral, both sexes
  NOAEL: 1 g/kg/dose BID and 1.0 g/kg/dose BID
[5]; 6 months, ≥2 g/kg/day
  adverse findings: intestinal bloating and soft stool were observed
[5]; intestinal bloating and soft stool
  time for response to subside after termination of treatment: 48 h
